Here are results for 1 molecule from patent publication US20250354970A1, “SYSTEMS, METHODS, AND APPARATUSES FOR CHARACTERIZING RELEASE PROFILES FOR LONG-ACTING INJECTABLE MEDICATIONS” (Gilead Sciences, Inc., priority 2024, published 2025).

This series is described as follows: Unit input response, intravenous bolus plasma concentration. In kind it is in vivo. Particulars: human, read-out: Plasma Concentration of API A. An excerpt:
In predicting plasma concentration time profiles, we used two steps. First, we time scaled in vitro release profiles to use as our reference. Second, we obtained convolution of time-scaled in vitro release profile with unit input response (UIR) we obtained using intravenous bolus dose profile in a physiologically based pharmacokinetic model (PBPK).
FIG. 18 illustrates use of convolution of time-scaled in vitro release profile data (panel A, Table 4) with unit input response (UIR) obtained using an intravenous bolus dose (panel B, Table 5) to generate predictive plasma concentration-time profiles (panel C, Table 6). Panel A includes time-scaled mean in vitro release profiles of various solution-based subcutaneous long acting injectables of API. Panel C includes observed versus predicted mean plasma concentration-time profiles in humans for various solution-based subcutaneous long acting injectables of API A.

As for `CC(C)(C#Cc1ccc(-c2ccc(Cl)c3c(NS(C)(=O)=O)nn(CC(F)(F)F)c23)c([C@H](Cc2cc(F)cc(F)c2)NC(=O)Cn2nc(C(F)(F)F)c3c2C(F)(F)[C@@H]2C[C@H]32)n1)S(C)(=O)=O` [API A, Lenacapavir], the concentration at 0 days (0.00 days) is 0 ng/mL. Besides, the concentration at 0.04 days (0.04 days) was determined as 162 ng/mL. Also, the concentration at 0.08 days (0.08 days) came out at 27.7 ng/mL. Moreover, where the note is “0.17 days”, the concentration at 0.17 days came out at 14 ng/mL. Moreover, where the note is “0.25 days”, the concentration at 0.25 days amounted to 7.73 ng/mL. In addition, where the note is “0.33 days”, the concentration at 0.33 days worked out at 5.71 ng/mL. For the same molecule, for the setting “0.50 days”, the concentration at 0.5 days was 4.68 ng/mL. Where the note is “1.00 days”, the concentration at 1 days was 4.33 ng/mL. The concentration at 2 days (2.00 days) amounted to 4.37 ng/mL. Moreover, where the note is “3.00 days”, the concentration at 3 days came to 4.29 ng/mL. Further, the concentration at 5 days (5.00 days) stood at 3.49 ng/mL. The concentration at 7 days (7.00 days) stood at 3.45 ng/mL. The concentration at 9 days (9.00 days) worked out at 2.84 ng/mL. Moreover, under “11.00 days”, the concentration at 11 days stood at 2.61 ng/mL. Besides, under “14.00 days”, the concentration at 14 days came out at 2.33 ng/mL. Moreover, the concentration at 20.92 days (20.92 days) is 1.71 ng/mL. Moreover, the concentration at 27.92 days (27.92 days) is 1.1 ng/mL. Moreover, the concentration at 34.96 days (34.96 days) was determined as 0.71 ng/mL. Moreover, the concentration at 41.96 days (41.96 days) stood at 0.43 ng/mL. Also, for the setting “55.96 days”, the concentration at 55.96 days came out at 0.25 ng/mL.
